Laboratory results taken from US12312333B2, “SK channel positive allosteric modulators” (Chapman University, priority 2021, dated 2025).
Entries after “also recorded” stand apart in the source; their conditions may differ.

Tested on: Purkinje cells in acute cerebellar slices from SCA2-58Q mouse
Experiment: Cerebellar slice loose-patch recordings of spontaneous PC activity in SCA2-58Q mice
Format: cell-based
Conditions: 10 μM; for effect on PC firing pattern: bursting SCA2-58Q PC; for Average firing frequency (FF) after exposure: 10-s fragment of one PC recording, before application 2o 157.2 Hz, 2q 134.3 Hz
Procedure: The ISI distribution before and after 2o application, obtained from 10-s fragments of the recording was also analyzed (FIG. 9C). […] The ISI distribution before and after 2q application, obtained from 10-s fragments of the recording was also analyzed (FIG. 10A).
Transgenic SCA2-58Q mice and their wild type (WT) littermates were used in these experiments. SCA2-58Q mice were kindly provided to us by Dr. Stefan Pulst (University of Utah) and were crossed to the FVB background strain. Hemizygous male SCA2-58Q mice were crossed with the WT female mice to generate mixed litters. The genotyping was done via PCR for ATXN2 transgene. The volume of one PCR sample was 25 μl. The PCR mix per one sample contained: 2.5 μl 10× buffer for Taq polymerase, 0.5 μl 10 mM dNTP, 1.5 μl 25 mM MgCl2, 0.125 μl 20 μM primers (forward and reverse), 0.25 μl Taq polymerase, 2 μl DNA, and 18 μl dH2O. For forward and reverse primer sequences, see e.g., Egorova et al., Cell Calcium, 2021 January; 93: 102319. The PCR product has 232 bp. Mice were housed in groups of two to six in one cage in the vivarium. The temperature was kept 22-24° C. including 12 daylight hours. […] All procedures were approved by the Bioethics Committee of the Peter the Great St. Petersburg Polytechnic University at St. Petersburg, Russia, and followed the principles of the European convention (Strasbourg, 1986) and the Declaration of International medical association about humane treatment of animals (Helsinki, 1996).
Recordings of spontaneous PC activity from WT and SCA2-58Q mice at 7-8 months of age were performed. Briefly, the mice were anesthetized with 2,000 mg/kg urethane and transcardially perfused with ice-cold aCSF containing 85 mM NaCl, 24 mM NaHCO3, 25 mM glucose, 2.5 mM KCl, 0.5 mM CaCl2, 4 mM MgCl2, 1 mM NaH2PO4, and 75 mM sucrose. Solutions were equilibrated with carbogen (95% O2/5% CO2). Next, the cerebellum was dissected and 300 μm thick sagittal slices were cut with a VT1200S vibratome (Leica). […] The external bath solution used for the recording was the same as the recovery aCSF, but also contained 100 μM picrotoxin (PTX) and 10 μM 6,7-dinitroquinoxaline-2,3-dione (DNQX), equilibrated with carbogen. All recordings were made within 5-6 hours after cerebellum was dissected. The recording chamber was heated to 35° C. using TC-324C automatic temperature controller (Warner Instruments). Loose-patch recordings were made to evaluate the spontaneous activity of cerebellar PCs. Briefly, 1-3 MΩ glass pipettes were filled with the internal solution containing 140 mM NaCl buffered with 10 mM HEPES pH 7.3 and held at 0 mV. A loose patch (<100 MΩ) configuration was established at the PC soma at the axon hillock area. Spontaneous action potential currents were recorded for 5-60 min from each cell using Axon Multiclamp 700B amplifier (Molecular Devices). The 10 min recordings were analyzed for tonic or burst firing. Cells were characterized as firing tonically if they fired repetitive nonhalting spike trains for 10 min. A cell was characterized as bursting if it had more than 5% of the interspike intervals that fell outside of 3 SD from the mean of all interspike intervals in that cell. The analysis of PC firing was performed using Clampfit 10.2 (Molecular Devices). Data was plotted as the instantaneous firing rate every 100 ms for the entire recording duration.

| Structure (SMILES) | effect on PC firing frequency | effect on regularity of PC activity | time after application until cell activity switched to the silent mode | effect on PC firing pattern | Average firing frequency (FF) after exposure |
| --- | --- | --- | --- | --- | --- |
| Cc1cc(Nc2cc(Cl)ccc2F)nc(-n2nc(C)cc2C)n1 [Compound 2q, N-(5-Chloro-2-fluorophenyl)-2-(3,5-dimethyl-1H-pyrazol-1-yl)-6-methylpyrimidin-4-amine] | significantly decreased the firing frequency of the cell | improved the regularity of PC activity | 8 min | converted bursting SCA2-58Q PC to tonic firing pattern; also recorded: normalize abnormal firing of Purkinje cells; also recorded: converts bursting patterns into tonic activity of PC and then into a silent mode | 55.9 Hz |
| Cc1cc(Nc2ccc(F)c(Cl)c2)nc(-n2nc(C)cc2C)n1 [Compound 2o, N-(3-Chloro-4-fluorophenyl)-2-(3,5-dimethyl-1H-pyrazol-1-yl)-6-methyl-pyrimidin-4-amine] | significantly decreased the firing frequency of the cell | improved the regularity of PC activity |  | converted bursting SCA2-58Q PC to tonic firing pattern; also recorded: normalize abnormal firing of Purkinje cells; also recorded: converts bursting patterns into tonic activity of PC | 84.6 Hz |
